Assay results: ChEMBL document CHEMBL1909046, “DrugMatrix in vitro pharmacology data”

Columns and labels:
[1] = target: Protein phosphatase 3 catalytic subunit alpha (Homo sapiens, UniProt Q08209); design: species or system Escherichia coli;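 note: inhibition of calcineurin (PP2B) enzyme activity, measured with DiFMUP as the substrate; in other assays of this panel Not Active means under 50% inhibition at 10 µM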
Estrogen receptor beta = Estrogen receptor beta (Homo sapiens, UniProt Q92731); settings: sf9; note: in other assays of this panel Not Active means under 50% inhibition at 10 µM
Adenosine receptor A2a = Adenosine receptor A2a (Homo sapiens, UniProt P29274); test: DRUGMATRIX: Adenosine A2A radioligand binding (ligand: […]); format: cell membranes, HEK293, Membrane; settings: hek293; Not Active = under 50% inhibition at 10 µM
[2] = target: 5-hydroxytryptamine receptor 4 (Cavia porcellus, UniProt O70528); format: cell membranes, Dunkin-Hartley, Striatum, Membrane; note: in other assays of this panel Not Active means under 50% inhibition at 10 µM
Nitric oxide synthase 1 = Nitric oxide synthase 1 (Rattus norvegicus, UniProt P29476); format: tissue-based, Cerebellum; note: in other assays of this panel Not Active means under 50% inhibition at 10 µM
[3] = DRUGMATRIX: Phosphodiesterase PDE3 enzyme inhibition (substrate: [3H]cAMP + cAMP); format: tissue-based, Homo sapiens; settings: platelet; Not Active = under 50% inhibition at 10 µM
[4] = DRUGMATRIX: Potassium Channel [KATP] radioligand binding (ligand: [3H] Glyburide); format: cell membranes, Membrane; settings: hit-t15; Not Active = under 50% inhibition at 10 µM
[5] = target: Tyrosine-protein kinase Lck (Homo sapiens, UniProt P06239); test: DRUGMATRIX: Protein Tyrosine Kinase, LCK enzyme inhibition (substrate: Poly(Glu:Tyr)); format: cell-based, Insect cells; settings: Not Active = under 50% inhibition at 10 µM
[6] = target: T1, C-X-C chemokine receptor type 1 (Homo sapiens, UniProt P25024); note: in other assays of this panel Not Active means under 50% inhibition at 10 µM
T1 sequence (P25024 whole entry): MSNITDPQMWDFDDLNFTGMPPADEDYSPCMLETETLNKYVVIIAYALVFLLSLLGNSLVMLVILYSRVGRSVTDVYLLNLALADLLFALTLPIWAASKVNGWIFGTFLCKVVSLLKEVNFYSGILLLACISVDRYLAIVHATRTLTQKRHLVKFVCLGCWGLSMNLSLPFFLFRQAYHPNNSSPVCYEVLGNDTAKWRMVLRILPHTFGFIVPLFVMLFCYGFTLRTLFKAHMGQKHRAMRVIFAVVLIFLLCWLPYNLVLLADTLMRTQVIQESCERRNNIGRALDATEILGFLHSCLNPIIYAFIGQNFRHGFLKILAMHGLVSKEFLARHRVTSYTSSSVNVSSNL

[7] = DRUGMATRIX: Atrial Natriuretic Factor (ANF) radioligand binding (ligand: [125I] ANF (rat)); format: cell membranes, Cavia porcellus, Dunkin-Hartley, Adrenal gland, Membrane; settings: Not Active = under 50% inhibition at 10 µM
[8] = DRUGMATRIX: Leukotriene, BLT (LTB4) radioligand binding (ligand: [3H]LTB4); format: cell membranes, Membrane; settings: u-937; Not Active = under 50% inhibition at 10 µM
[9] = target: T2, Alpha-2C adrenergic receptor (Homo sapiens, UniProt P18825); test: DRUGMATRIX: Adrenergic Alpha-2C radioligand binding (ligand: [3H] MK-912); format: cell membranes, Sf9, Membrane
T2 sequence (P18825 whole entry): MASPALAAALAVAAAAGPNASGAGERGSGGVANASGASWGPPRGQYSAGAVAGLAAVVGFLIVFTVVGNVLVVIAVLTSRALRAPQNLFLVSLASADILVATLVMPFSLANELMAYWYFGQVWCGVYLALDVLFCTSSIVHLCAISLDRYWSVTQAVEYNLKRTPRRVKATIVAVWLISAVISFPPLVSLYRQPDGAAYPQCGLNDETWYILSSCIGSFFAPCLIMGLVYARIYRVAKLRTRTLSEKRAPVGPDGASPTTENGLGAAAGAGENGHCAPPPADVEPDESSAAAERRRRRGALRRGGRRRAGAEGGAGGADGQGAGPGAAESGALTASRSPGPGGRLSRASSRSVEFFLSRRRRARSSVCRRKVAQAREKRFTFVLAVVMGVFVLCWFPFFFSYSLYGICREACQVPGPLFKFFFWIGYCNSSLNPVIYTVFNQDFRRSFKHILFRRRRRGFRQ

[10] = target: T3, Cysteinyl leukotriene receptor 1 (Homo sapiens, UniProt Q9Y271); format: cell membranes, CHO-K1, Membrane; settings: cho-k1; note: in other assays of this panel Not Active means under 50% inhibition at 10 µM
T3 sequence (Q9Y271 whole entry): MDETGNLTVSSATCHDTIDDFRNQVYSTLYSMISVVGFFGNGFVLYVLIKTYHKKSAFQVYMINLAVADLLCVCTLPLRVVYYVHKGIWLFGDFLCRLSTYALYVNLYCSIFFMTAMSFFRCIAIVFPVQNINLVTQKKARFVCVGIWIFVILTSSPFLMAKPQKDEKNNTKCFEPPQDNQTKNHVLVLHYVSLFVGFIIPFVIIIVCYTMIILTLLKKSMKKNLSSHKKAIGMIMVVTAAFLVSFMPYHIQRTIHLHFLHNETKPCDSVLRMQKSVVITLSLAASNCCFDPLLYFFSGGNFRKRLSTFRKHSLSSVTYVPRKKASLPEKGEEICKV

Caspase-1 = target: T4, Caspase-1 (Homo sapiens, UniProt P29466); design: species or system Escherichia coli
T4 sequence (P29466 whole entry): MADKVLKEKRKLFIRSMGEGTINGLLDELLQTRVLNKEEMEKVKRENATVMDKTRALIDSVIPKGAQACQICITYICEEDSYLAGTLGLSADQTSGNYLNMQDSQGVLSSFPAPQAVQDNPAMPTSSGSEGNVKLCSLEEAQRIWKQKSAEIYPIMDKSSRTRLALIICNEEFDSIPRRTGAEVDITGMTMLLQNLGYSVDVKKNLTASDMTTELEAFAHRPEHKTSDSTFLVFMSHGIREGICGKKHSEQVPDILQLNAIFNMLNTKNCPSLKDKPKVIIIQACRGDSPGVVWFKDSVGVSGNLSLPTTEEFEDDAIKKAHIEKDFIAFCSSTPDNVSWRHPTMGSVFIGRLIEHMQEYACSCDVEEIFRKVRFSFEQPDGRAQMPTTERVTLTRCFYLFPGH

Sequence of Nitric oxide synthase 1 (P29476 whole entry): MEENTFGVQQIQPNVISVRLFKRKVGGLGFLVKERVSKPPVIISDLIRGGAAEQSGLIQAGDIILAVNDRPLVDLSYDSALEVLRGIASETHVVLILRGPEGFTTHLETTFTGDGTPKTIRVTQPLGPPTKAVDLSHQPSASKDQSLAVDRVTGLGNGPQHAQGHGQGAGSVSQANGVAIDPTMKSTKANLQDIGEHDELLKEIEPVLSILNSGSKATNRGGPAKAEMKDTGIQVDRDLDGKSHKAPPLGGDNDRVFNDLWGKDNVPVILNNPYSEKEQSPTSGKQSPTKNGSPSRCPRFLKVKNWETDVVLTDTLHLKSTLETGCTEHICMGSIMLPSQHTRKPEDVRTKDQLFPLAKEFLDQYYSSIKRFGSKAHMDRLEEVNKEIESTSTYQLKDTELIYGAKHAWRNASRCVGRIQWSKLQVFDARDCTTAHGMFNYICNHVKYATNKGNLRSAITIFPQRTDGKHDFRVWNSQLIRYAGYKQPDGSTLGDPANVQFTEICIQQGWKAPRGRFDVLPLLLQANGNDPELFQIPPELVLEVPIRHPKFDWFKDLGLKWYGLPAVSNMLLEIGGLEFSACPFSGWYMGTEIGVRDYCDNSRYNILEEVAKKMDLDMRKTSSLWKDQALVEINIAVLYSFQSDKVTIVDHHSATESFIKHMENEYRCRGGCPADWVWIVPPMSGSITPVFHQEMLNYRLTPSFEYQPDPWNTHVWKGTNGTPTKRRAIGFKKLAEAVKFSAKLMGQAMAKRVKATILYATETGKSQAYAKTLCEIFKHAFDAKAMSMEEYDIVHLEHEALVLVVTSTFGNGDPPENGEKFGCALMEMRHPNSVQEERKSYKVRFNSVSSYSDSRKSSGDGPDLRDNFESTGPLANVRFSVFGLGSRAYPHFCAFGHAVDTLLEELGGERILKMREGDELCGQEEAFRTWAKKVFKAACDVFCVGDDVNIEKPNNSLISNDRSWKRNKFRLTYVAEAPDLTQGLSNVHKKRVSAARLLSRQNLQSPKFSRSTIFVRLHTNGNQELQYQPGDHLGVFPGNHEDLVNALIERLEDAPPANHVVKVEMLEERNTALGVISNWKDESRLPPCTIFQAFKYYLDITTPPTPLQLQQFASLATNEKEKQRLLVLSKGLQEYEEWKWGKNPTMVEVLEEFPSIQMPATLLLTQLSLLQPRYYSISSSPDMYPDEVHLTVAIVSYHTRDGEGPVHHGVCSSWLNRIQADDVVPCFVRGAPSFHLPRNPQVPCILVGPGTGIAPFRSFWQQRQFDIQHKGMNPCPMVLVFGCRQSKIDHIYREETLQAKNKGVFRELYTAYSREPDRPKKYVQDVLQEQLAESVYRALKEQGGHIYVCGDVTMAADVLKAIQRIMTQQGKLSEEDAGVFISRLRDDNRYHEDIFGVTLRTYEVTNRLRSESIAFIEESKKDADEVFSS
Sequence of Estrogen receptor beta (Q92731 whole entry): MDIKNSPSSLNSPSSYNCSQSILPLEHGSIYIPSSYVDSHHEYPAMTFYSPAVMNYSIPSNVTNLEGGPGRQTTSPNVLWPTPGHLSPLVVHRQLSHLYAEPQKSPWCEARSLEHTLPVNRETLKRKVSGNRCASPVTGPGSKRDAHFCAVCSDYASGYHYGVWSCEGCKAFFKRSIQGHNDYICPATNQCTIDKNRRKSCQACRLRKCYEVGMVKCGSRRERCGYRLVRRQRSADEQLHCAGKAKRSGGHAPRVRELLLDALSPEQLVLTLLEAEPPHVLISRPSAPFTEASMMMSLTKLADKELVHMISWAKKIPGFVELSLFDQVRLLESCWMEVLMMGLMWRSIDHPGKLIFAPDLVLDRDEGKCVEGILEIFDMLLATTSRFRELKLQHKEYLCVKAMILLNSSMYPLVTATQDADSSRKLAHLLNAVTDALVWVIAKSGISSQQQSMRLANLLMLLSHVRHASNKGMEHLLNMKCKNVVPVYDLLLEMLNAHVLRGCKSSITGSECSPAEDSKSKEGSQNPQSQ
Sequence of Adenosine receptor A2a (P29274 whole entry): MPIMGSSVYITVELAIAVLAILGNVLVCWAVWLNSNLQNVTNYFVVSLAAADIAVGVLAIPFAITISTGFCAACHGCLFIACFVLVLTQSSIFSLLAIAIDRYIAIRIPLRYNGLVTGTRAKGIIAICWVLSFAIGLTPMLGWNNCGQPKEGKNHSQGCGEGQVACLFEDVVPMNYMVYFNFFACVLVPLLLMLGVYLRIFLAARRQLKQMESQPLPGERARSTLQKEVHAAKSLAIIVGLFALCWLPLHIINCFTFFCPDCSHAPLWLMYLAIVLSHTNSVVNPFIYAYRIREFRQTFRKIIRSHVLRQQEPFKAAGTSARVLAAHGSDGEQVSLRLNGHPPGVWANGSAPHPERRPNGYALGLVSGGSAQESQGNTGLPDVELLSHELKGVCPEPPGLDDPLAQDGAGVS
Sequence of 5-hydroxytryptamine receptor 4 (O70528 whole entry): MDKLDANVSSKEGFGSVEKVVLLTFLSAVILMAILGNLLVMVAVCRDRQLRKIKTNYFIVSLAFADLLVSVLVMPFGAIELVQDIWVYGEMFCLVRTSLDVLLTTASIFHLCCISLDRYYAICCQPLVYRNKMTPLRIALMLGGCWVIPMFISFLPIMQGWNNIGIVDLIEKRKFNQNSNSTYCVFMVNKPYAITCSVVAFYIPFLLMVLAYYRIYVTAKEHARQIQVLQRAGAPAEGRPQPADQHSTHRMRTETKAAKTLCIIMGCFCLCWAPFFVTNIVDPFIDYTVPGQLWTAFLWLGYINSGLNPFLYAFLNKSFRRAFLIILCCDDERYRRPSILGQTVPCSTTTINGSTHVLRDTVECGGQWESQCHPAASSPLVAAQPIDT
Sequence of Tyrosine-protein kinase Lck (P06239 whole entry): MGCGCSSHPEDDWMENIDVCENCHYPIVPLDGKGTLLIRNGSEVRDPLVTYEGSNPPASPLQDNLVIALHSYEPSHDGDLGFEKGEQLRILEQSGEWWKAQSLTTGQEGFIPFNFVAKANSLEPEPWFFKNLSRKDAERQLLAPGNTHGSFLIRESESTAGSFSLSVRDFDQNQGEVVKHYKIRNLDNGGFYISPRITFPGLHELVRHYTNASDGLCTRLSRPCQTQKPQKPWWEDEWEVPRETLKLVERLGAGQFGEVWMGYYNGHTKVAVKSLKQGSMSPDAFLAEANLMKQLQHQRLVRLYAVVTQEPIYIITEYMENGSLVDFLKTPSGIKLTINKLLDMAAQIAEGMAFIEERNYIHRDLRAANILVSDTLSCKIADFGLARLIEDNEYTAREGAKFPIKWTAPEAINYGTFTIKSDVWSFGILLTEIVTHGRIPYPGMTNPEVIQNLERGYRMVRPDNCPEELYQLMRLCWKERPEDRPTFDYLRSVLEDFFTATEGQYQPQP

Row | Compound | IC50 [1] | IC50 (Estrogen receptor beta) | IC50 (Adenosine receptor A2a) | IC50 [2] | IC50 (Nitric oxide synthase 1) | IC50 [3] | Ki [3] | IC50 [4] | Ki [4] | IC50 ([5]; insect cells) | IC50 [6] | IC50 [7] | Ki [7] | IC50 [8] | Ki [8] | IC50 ([9]; sf9) | IC50 [10] | IC50 (Caspase-1) | further results
1 | COC(=O)[C@H](c1ccccc1Cl)N1CCc2sccc2C1 [CLOPIDOGREL] | Not Active | Not Active | Not Active | Not Active | Not Active | Not Active | Not Active | Not Active | Not Active | Not Active | Not Active | Not Active | Not Active | Not Active | Not Active | Not Active | Not Active | Not Active | 
2 | C[C@]12CCC(=O)C=C1CC[C@@H]1[C@@H]2C(=O)C[C@@]2(C)[C@H]1CC[C@]2(O)C(=O)CO [CORTISONE] | Not Active | Not Active | Not Active | Not Active | Not Active | Not Active | Not Active | Not Active | Not Active | Not Active | Not Active | Not Active | Not Active | Not Active | Not Active | Not Active | Not Active | Not Active | 
3 | Cc1ccccc1N1CCN(CCc2nnc3n2CCCC3)CC1 [DAPIPRAZOLE] | Not Active | Not Active | Not Active | Not Active | Not Active | Not Active | Not Active | Not Active | Not Active | Not Active | Not Active | Not Active | Not Active | Not Active | Not Active | Not Active | Not Active | Not Active | 
4 | CC(=O)OCC(=O)[C@@]1(OC(C)=O)[C@@H](C)C[C@H]2[C@@H]3C[C@H](F)C4=CC(=O)C=C[C@]4(C)[C@@]3(F)[C@@H](O)C[C@@]21C [DIFLORASONE DIACETATE] | Not Active | Not Active | Not Active | Not Active | Not Active | Not Active | Not Active | Not Active | Not Active | Not Active | Not Active | Not Active | Not Active | Not Active | Not Active | Not Active | Not Active | Not Active | 
5 | COc1ccc([C@@H]2Sc3ccccc3N(CCN(C)C)C(=O)[C@@H]2OC(C)=O)cc1 [DILTIAZEM] | Not Active | Not Active | Not Active | Not Active | Not Active | Not Active | Not Active | Not Active | Not Active | Not Active | Not Active | Not Active | Not Active | Not Active | Not Active | Not Active | Not Active | Not Active | 
6 | C=C1CC[C@H](O)C/C1=C/C=C1\CCC[C@]2(C)[C@@H]([C@H](C)/C=C/[C@H](C)C(C)C)CC[C@@H]12 [ERGOCALCIFEROL] | Not Active | Not Active | Not Active | Not Active | Not Active | Not Active | Not Active | Not Active | Not Active | Not Active | Not Active | Not Active | Not Active | Not Active | Not Active | Not Active | Not Active | Not Active | 
7 | CN1C[C@H](C(=O)N[C@]2(C)O[C@@]3(O)[C@@H]4CCCN4C(=O)[C@H](Cc4ccccc4)N3C2=O)C=C2c3cccc4[nH]cc(c34)C[C@H]21 [ERGOTAMINE] | Not Active | Not Active | Not Active |  | Not Active | Not Active | Not Active | Not Active | Not Active |  | Not Active | Not Active | Not Active | Not Active | Not Active |  | Not Active | Not Active | IC50 ([2]; read-out: IC50): 1580 nM; Ki ([2]; read-out: Ki): 264 nM; IC50 ([5]; read-out: IC50): 6500 nM; IC50 ([9]; read-out: IC50): 12 nM; Ki ([9]; read-out: Ki): 1.81 nM
8 | CCc1cccc2c3c([nH]c12)C(CC)(CC(=O)O)OCC3 (centres undefined) [ETODOLAC] | Not Active | Not Active | Not Active | Not Active | Not Active | Not Active | Not Active | Not Active | Not Active | Not Active | Not Active | Not Active | Not Active | Not Active | Not Active | Not Active | Not Active | Not Active | 
9 | Cc1c(-c2ccccc2)oc2c(C(=O)OCCN3CCCCC3)cccc2c1=O [FLAVOXATE] | Not Active | Not Active | Not Active | Not Active | Not Active | Not Active | Not Active | Not Active | Not Active | Not Active | Not Active | Not Active | Not Active | Not Active | Not Active | Not Active | Not Active | Not Active | 
